From patent US20230086702A1, “SUBSTITUTED 2-AMINO-PYRAZOLYL-[1,2,4]TRIAZOLO[1,5A]PYRIDINE DERIVATIVES AND USE THEREOF” (The Johns Hopkins University, priority 2019, published 2023)
pIC50: −log10 of the molar value.

Key:
DLK = biological target: T1, DLK (Homo sapiens, UniProt Q12852); experiment: DLK biochemical assay (TR-FRET, MKK7 phosphorylation)
T1 construct: 10 nM DLK, catalytic domain, Carna Biosiences; purchased Carna Biosciences ('Carna Biosiences' [sic])
T1 sequence (Q12852 125-366 limits assumed): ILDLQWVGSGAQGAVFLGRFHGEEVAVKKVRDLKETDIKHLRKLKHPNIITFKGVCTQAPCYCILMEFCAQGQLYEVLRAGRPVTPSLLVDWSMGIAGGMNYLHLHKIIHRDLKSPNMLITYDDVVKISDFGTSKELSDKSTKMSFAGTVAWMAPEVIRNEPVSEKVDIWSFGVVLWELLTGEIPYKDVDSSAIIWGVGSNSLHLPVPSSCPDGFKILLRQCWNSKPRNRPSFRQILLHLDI
How it was run: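 DLK catalytic domain (10 nM) phosphorylates His-MKK7 (15 nM) at 60 μM ATP for 90 min at RT in pH 7.5 Hepes buffer (final concentrations). Phospho-T275/S277 is detected by TR-FRET (Eu anti-phospho donor, XL665 anti-His acceptor) after 16 h at 37° C (1536 format) or 4° C (384 format).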

LZK = biological target: T2, LZK (Homo sapiens, UniProt O43283); experiment: LZK biochemical assay (TR-FRET, MKK7 phosphorylation)
T2 construct: 10 nM LZK, catalytic domain, Carna Biosiences in assay buffer; purchased Carna Biosciences ('Carna Biosiences' [sic])
T2 sequence (O43283 168-409 limits assumed): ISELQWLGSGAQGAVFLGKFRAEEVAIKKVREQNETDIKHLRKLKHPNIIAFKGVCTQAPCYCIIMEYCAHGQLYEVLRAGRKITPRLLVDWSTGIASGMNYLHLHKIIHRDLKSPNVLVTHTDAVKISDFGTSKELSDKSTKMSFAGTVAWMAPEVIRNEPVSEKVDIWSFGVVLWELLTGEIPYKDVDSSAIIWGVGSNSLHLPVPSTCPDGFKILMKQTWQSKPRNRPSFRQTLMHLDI
How it was run: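 LZK catalytic domain (10 nM) phosphorylates His-MKK7 (15 nM) with 15 µM ATP, all final, for 90 min at RT in HEPES buffer pH 7.5 with MgCl2. Phospho-T275/S277 detected by TR-FRET (Eu anti-phospho donor, XL665 anti-His acceptor) after 16 h at 32 °C in EDTA stop buffer. Inhibition lowers the 665/Eu ratio.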

SMILES | pIC50 (DLK) | pIC50 (LZK)
Nc1nc2c(-c3ccc(C(F)(F)F)nc3)cc(-c3cnn(C4CCN(C5COC5)CC4)c3)cn2n1 [II-46, 6-{1-[1-(Oxetan-3-yl)piperidin-4-yl]-1H-pyrazol-4-yl}-8-[6-(trifluoromethyl)pyridin-3-yl][1,2,4]triazolo[1,5-a]pyridin-2-amine] | 6.12 | 6.42
CCC(c1ccc(C(F)F)nc1)n1cc(-c2cc(-c3ccc(C4CC4)nc3)n3nc(N)nc3c2)cn1 (single isomer, unassigned) [II-69, 5-(6-Cyclopropylpyridin-3-yl)-7-(1-{1-[6-(difluoromethyl)pyridin-3-yl]propyl}-1H-pyrazol-4-yl)[1,2,4]triazolo[1,5-a]pyridin-2-amine] | 8.32 | 8.03
Nc1nc2c(-c3cccc(S(=O)(=O)C(F)(F)F)c3)cc(-c3cnn(C(c4ccc(C(F)(F)F)nc4)C4CCOCC4)c3)cn2n1 (single isomer, unassigned) [II-21, 6-(1-{Tetrahydro-2H-pyran-4-yl[6-(trifluoromethyl)pyridin-3-yl]methyl}-1H-pyrazol-4-yl)-8-{3-[(trifluoromethyl)sulfonyl]phenyl}[1,2,4]triazolo[1,5-a]pyridin-2-amine] | 8.12 | 7.85
CCC(c1ccc(C(F)(F)F)cc1)n1cc(-c2cc(-c3cnn(CC(F)(F)F)c3)n3nc(N)nc3c2)cn1 (single isomer, unassigned) [II-131, 5-[1-(2,2,2-Trifluoroethyl)-1H-pyrazol-4-yl]-7-(1-{1-[4-(trifluoromethyl)phenyl]propyl}-1H-pyrazol-4-yl)[1,2,4]triazolo[1,5-a]pyridin-2-amine] | 7.60 | 6.78
CCC(c1ccc(C(F)F)nc1)n1cc(-c2cc(-c3ccc(C(F)(F)F)nc3)n3nc(N)nc3c2)cn1 (single isomer, unassigned) [II-63, 7-(1-{1-[6-(Difluoromethyl)pyridin-3-yl]propyl}-1H-pyrazol-4-yl)-5-[6-(trifluoromethyl)pyridin-3-yl][1,2,4]triazolo[1,5-a]pyridin-2-amine] | 7.01 | 7.29
CCC(c1ccc(C(F)(F)F)nc1)n1cc(-c2cc(-c3ccnc(OC(F)F)c3)c3nc(N)nn3c2)cn1 (single isomer, unassigned) [II-26, 8-[2-(Difluoromethoxy)pyridin-4-yl]-6-(1-{1-[6-(trifluoromethyl)pyridin-3-yl]propyl}-1H-pyrazol-4-yl)[1,2,4]triazolo[1,5-a]pyridin-2-amine] | 6.68 | 6.82
CCC(c1ccc(C(F)(F)F)nc1)n1cc(-c2cc(-c3ccc(C4CC4)nc3)n3nc(N)nc3c2)cn1 (single isomer, unassigned) [II-57, 5-(6-Cyclopropylpyridin-3-yl)-7-(1-{1-[6-(trifluoromethyl)pyridin-3-yl]propyl}-1H-pyrazol-4-yl)[1,2,4]triazolo[1,5-a]pyridin-2-amine] | 7.74 | 7.85
CCC(c1ccc(C(F)(F)F)nc1)n1cc(-c2cc(-c3cc(CO)ccc3Cl)c3nc(N)nn3c2)cn1 (single isomer, unassigned) [II-2, {3-[2-Amino-6-(1-{1-[6-(trifluoromethyl)pyridin-3-yl]propyl}-1H-pyrazol-4-yl)[1,2,4]triazolo[1,5-a]pyridin-8-yl]-4-chlorophenyl}methanol] | 6.77 | 7.52
CCC(c1ccc(OC(F)(F)F)nc1)n1cc(-c2cc(-c3ccc(=O)n(CC(F)(F)F)c3)c3nc(N)nn3c2)cn1 (stereo not drawn) [II-163] | 8.31 | 7.60
CCC(c1ccc(C(F)(F)F)nc1)n1cc(-c2cc(-c3ccc(C(F)(F)F)nc3)c3nc(N)nn3c2)cn1 (single isomer, unassigned) [II-38, 8-[6-(Trifluoromethyl)pyridin-3-yl]-6-(1-{1-[6-(trifluoromethyl)pyridin-3-yl]propyl}-1H-pyrazol-4-yl)[1,2,4]triazolo[1,5-a]pyridin-2-amine] | 7.25 | 6.92
CCC(c1ccc(OC(F)(F)F)nc1)n1cc(-c2cc(-c3cnn(CC(F)(F)F)c3)n3nc(N)nc3c2)cn1 (single isomer, unassigned) [II-115, 5-[1-(2,2,2-Trifluoroethyl)-1H-pyrazol-4-yl]-7-(1-{1-[6-(trifluoromethoxy)pyridin-3-yl]propyl}-1H-pyrazol-4-yl)[1,2,4]triazolo[1,5-a]pyridin-2-amine] | 7.17 | 6.86
Nc1nc2c(-c3ccn(CC(F)F)c(=O)c3)cc(-c3cnn(C(c4ccc(C(F)(F)F)nc4)C4CCOCC4)c3)cn2n1 (single isomer, unassigned) [II-174, 4-[2-Amino-6-(1-{tetrahydro-2H-pyran-4-yl[6-(trifluoromethyl)pyridin-3-yl]methyl}-1H-pyrazol-4-yl)[1,2,4]triazolo[1,5-a]pyridin-8-yl]-1-(2,2-difluoroethyl)pyridin-2(1H)-one] | 9.00 | 8.37
CCC(c1ccc(C(F)(F)F)nc1)n1cc(-c2cc(-c3ccnc(OC(F)F)c3)c3nc(N)nn3c2)cn1 (single isomer, unassigned) [II-27, 8-[2-(Difluoromethoxy)pyridin-4-yl]-6-(1-{1-[6-(trifluoromethyl)pyridin-3-yl]propyl}-1H-pyrazol-4-yl)[1,2,4]triazolo[1,5-a]pyridin-2-amine] | 7.52 | 7.26
CC(C)C(c1ccc(C(F)(F)F)nc1)n1cc(-c2cc(-c3ccc(C(F)F)nc3)n3nc(N)nc3c2)cn1 (single isomer, unassigned) [II-71, 5-[6-(Difluoromethyl)pyridin-3-yl]-7-(1-{2-methyl-1-[6-(trifluoromethyl)pyridin-3-yl]propyl}-1H-pyrazol-4-yl)[1,2,4]triazolo[1,5-a]pyridin-2-amine] | 6.80 | 7.13
C[C@@H](CO)c1nnc(-c2cc(-c3cnn(Cc4cccc5cn[nH]c45)c3)cn3nc(N)nc23)s1 [II-199, (2S)-2-(5-{2-Amino-6-[1-(1H-indazol-7-ylmethyl)-1H-pyrazol-4-yl][1,2,4]triazolo[1,5-a]pyridin-8-yl}-1,3,4-thiadiazol-2-yl)propan-1-ol] | 7.92 | 6.39
CCC(c1ccc(C(F)(F)F)nc1)n1cc(-c2cc(-c3ccnc(C4(F)CC4)c3)n3nc(N)nc3c2)cn1 (single isomer, unassigned) [II-33, 5-[2-(1-Fluorocyclopropyl)pyridin-4-yl]-7-(1-{1-[6-(trifluoromethyl)pyridin-3-yl]propyl}-1H-pyrazol-4-yl)[1,2,4]triazolo[1,5-a]pyridin-2-amine] | 7.77 | 8.12
CC(C)C(c1ccc(C(F)(F)F)nc1)n1cc(-c2cc(-c3ccc(C4(O)CCC4)nc3)n3nc(N)nc3c2)cn1 (racemic) [II-80, 1-{5-[2-Amino-7-(1-{2-methyl-1-[6-(trifluoromethyl)pyridin-3-yl]propyl}-1H-pyrazol-4-yl)[1,2,4]triazolo[1,5-a]pyridin-5-yl]pyridin-2-yl}cyclobutan-1-ol] | 7.68 | 7.77
CC(C)C(c1ccc(C(F)F)nc1)n1cc(-c2cc(-c3ccc(C4CC4)nc3)n3nc(N)nc3c2)cn1 (single isomer, unassigned) [II-53, 5-(6-Cyclopropylpyridin-3-yl)-7-(1-{1-[6-(difluoromethyl)pyridin-3-yl]-2-methylpropyl}-1H-pyrazol-4-yl)[1,2,4]triazolo[1,5-a]pyridin-2-amine] | 7.48 | 7.32
CC(C)C(c1ccc(C(F)F)nc1)n1cc(-c2cc(-c3ccc(C4CC4)nc3)n3nc(N)nc3c2)cn1 (racemic) [II-52, 5-(6-Cyclopropylpyridin-3-yl)-7-(1-{1-[6-(difluoromethyl)pyridin-3-yl]-2-methylpropyl}-1H-pyrazol-4-yl)[1,2,4]triazolo[1,5-a]pyridin-2-amine] | 8.22 | 7.72
CC(C)C(c1ccc(C(F)(F)F)nc1)n1cc(-c2cc(-c3ccc(C4CC(F)(F)C4)nc3)n3nc(N)nc3c2)cn1 (single isomer, unassigned) [II-74, 5-[6-(3,3-Difluorocyclobutyl)pyridin-3-yl]-7-(1-{2-methyl-1-[6-(trifluoromethyl)pyridin-3-yl]propyl}-1H-pyrazol-4-yl)[1,2,4]triazolo[1,5-a]pyridin-2-amine] | 6.29 | 6.77
CCC(c1ccc(C(F)(F)F)cc1)n1cc(-c2cc(-c3cnn(C4CCCC4)c3)n3nc(N)nc3c2)cn1 (single isomer, unassigned) [II-133, 5-(1-Cyclopentyl-1H-pyrazol-4-yl)-7-(1-{1-[4-(trifluoromethyl)phenyl]propyl}-1H-pyrazol-4-yl)[1,2,4]triazolo[1,5-a]pyridin-2-amine] | 7.35 | 6.89
